Measurements as given in publication PMC9523454 (Pharmacology Research & Perspectives, 2022).
Values joined by “and” are separate entries in the source; they are usually repeats but may differ in a detail not shown here. Equal values may be shown once. No end group written: not given here.

Key:
[1] = system: GLP‐1R/GIPR heteromer; format: cell-based, human; conditions: 1 μM ligand; HEK‐293, fixed ratio of GLP‐1R‐Nluc and GIPR‐SYFP2; mean ± SEM, at least three independent experiments
[2] = target: GIPR‐Nluc (human) (UniProt P48546); assay: FRET or BRET
[3] = target: GLP‐1R‐Nluc (human) (UniProt P43220); assay: FRET or BRET
[4] = system: GIPR; conditions: cited from earlier work

Sequence of UniProt P43220 (P43220 24-463): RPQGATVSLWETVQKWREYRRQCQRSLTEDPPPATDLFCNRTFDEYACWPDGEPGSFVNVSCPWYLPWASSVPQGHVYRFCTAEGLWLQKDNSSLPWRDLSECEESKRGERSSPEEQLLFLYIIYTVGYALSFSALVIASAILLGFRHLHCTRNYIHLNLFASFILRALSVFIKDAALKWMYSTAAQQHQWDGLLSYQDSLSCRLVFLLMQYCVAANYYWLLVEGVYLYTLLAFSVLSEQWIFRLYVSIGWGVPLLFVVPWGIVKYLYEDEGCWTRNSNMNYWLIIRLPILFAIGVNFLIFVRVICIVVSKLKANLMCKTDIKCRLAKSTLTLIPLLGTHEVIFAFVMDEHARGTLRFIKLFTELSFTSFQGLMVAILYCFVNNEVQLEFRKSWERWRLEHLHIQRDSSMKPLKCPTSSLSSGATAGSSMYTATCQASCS
Sequence of UniProt P48546 (P48546 22-466): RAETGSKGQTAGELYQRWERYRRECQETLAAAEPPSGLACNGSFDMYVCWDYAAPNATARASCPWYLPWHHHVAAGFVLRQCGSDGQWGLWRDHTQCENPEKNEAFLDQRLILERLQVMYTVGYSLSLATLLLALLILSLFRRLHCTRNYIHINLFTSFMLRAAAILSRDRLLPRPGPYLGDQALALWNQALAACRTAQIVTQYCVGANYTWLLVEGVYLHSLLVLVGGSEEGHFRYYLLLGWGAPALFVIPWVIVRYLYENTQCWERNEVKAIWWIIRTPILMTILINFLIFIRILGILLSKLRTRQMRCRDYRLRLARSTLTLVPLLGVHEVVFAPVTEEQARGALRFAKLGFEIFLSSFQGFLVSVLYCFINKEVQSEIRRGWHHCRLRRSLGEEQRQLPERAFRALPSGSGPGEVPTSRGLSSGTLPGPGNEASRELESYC

Row | pEC50 of the agonist GLP-1 for recruitment [3] | Substance | Change in BRET ratio vs non‐stimulated cells [1] | also measured
1 | – | GLP‐1 (9‐36): GLP‐1 metabolite, metabolic breakdown product of GLP‐1 (EGTFTSDVSSYLEGQAAKEFIAWLVKGR-NH2; UniProt P01275 100-127, looked up, fragment) | significantly increased the BRET ratio (p < .001) | –
2 | – | Oxyntomodulin: posttranslational product of proglucagon and an endogenous dual GLP‐1R/glucagon receptor agonist (HSQGTFTSDYSKYLDSRRAQDFVQWLMNTKRNRNNIA; Oxyntomodulin; UniProt P01275 53-89, looked up) | no effect on BRET ratio | –
3 | – | exendin‐4 (9–39) | no significant effect on BRET ratio | –
4 | 7.8 -log EC50/M and 7.7 -log EC50/M and 7.9 -log EC50/M | NES‐Venus‐mGαq | – | pEC50 of the agonist GIP for recruitment [2]: 8 -log EC50/M and 7.6 -log EC50/M and 7.8 -log EC50/M
5 | – | (Pro3)GIP: previously reported to be a GIPR antagonist but subsequently shown to be a low potency GIPR agonist; custom synthesized (YAPGTFISDYSIAMDKIHQQDFVNWLLAQKGKKNDWKHNITQ; Gastric inhibitory polypeptide; UniProt P09681 52-93, looked up, variant E3P) | no effect on BRET ratio | Activity at GIPR [4]: low potency GIPR agonist
6 | 7.8 -log EC50/M and 7.5 -log EC50/M and 7.7 -log EC50/M | NES‐Venus‐mGαs | – | –
